Consider 18 molecules from patent US11986471B2, “Compounds and methods of use” (Tango Therapeutics, Inc., priority 2018, dated 2024).

Bounds are passed on as bounds.

The test system of one assay is HAP1 MTAP-deleted. The assay is described as follows: SDMA in-cell western assay, HAP1 MTAP-deleted cell line. Type of assay: cell-based. The conditions noted are these: Homo sapiens, HAP1 MTAP-deleted cell line. From the text:
Table 1a also indicates IC50 values in an MTAP-isogenic cell line pair for exemplary compounds in an SDMA in-cell western assay (columns 7-8). HAP1 MTAP-intact is a cell line in which endogenous levels of MTAP are expressed, and HAP1 MTAP-deleted is an MTAP-null cell line.

The next assay concerns HAP1 MTAP-intact. Kind of assay: SDMA in-cell western assay, HAP1 MTAP-intact cell line. The class given is cell-based. The conditions noted are these: Homo sapiens. From the text: Table 1a also indicates IC50 values in an MTAP-isogenic cell line pair for exemplary compounds in an SDMA in-cell western assay (columns 7-8). HAP1 MTAP-intact is a cell line in which endogenous levels of MTAP are expressed, and HAP1 MTAP-deleted is an MTAP-null cell line. […] Compounds with a ratio in the SDMA in-cell western assay of equal to or greater than 3 fold are considered MTAP-selective.

Assay [1] has as its target T1, PRMT5 (Homo sapiens, UniProt O14744).
T1 construct: purchased Viva (custom protein)
Kind of assay: PRMT5 IC50 assay with no cofactor. The class given is biochemical. The conditions noted are these: read-out: No Co-factor IC50. The essentials:
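Three cofactor conditions tested for PRMT5 inhibition: none, MTA and SAM, each giving an IC50. For conversion to Ki, the MTA-condition IC50 is divided by 13.5 and the SAM-condition IC50 by 1.5, and the two Ki values are expressed as a SAM/MTA ratio.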

For assay [2], the target named is T1, PRMT5. The assay is described as follows: PRMT5 IC50 assay in the presence of MTA as cofactor. Conditions: for IC50: PRMT5, MTA as cofactor; for SAM/MTA Ratio: ratio between Ki in the presence of SAM and Ki in the presence of MTA. Type of assay: biochemical. The gist of the method: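 Three cofactor conditions are run: SAM-bound, MTA-bound and cofactor-free enzyme. IC50 is read from each; for the SAM and MTA arms it is divided by 1.5 and 13.5 respectively to give Ki.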

Assay [3] concerns the target T1, PRMT5. The assay is described as follows: PRMT5 IC50 assay in the presence of SAM as cofactor. Type of assay: biochemical. The essentials:
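Values reflect IC50 (μM) on human PRMT5 under three cofactor states. Selectivity is derived as the quotient of SAM-state Ki over MTA-state Ki, with each Ki obtained from its IC50.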

As usually defined, the IC50 is the midpoint of a concentration-inhibition curve.

T1 sequence (O14744 whole entry): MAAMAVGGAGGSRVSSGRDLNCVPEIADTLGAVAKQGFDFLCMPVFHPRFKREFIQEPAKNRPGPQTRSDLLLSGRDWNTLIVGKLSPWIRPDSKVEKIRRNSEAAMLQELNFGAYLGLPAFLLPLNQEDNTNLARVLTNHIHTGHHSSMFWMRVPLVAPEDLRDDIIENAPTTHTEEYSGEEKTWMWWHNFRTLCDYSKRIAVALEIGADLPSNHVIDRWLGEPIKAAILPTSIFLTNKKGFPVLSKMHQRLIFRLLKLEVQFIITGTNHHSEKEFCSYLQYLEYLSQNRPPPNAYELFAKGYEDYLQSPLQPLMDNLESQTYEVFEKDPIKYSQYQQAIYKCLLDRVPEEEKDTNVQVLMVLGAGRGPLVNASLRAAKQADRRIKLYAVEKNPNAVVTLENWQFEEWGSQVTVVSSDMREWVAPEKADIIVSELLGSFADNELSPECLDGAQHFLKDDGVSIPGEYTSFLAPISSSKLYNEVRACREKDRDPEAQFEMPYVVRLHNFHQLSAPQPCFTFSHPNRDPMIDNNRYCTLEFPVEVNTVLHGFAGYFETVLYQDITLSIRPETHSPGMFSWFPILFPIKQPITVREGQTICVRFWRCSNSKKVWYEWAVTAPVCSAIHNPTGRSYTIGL
T1 sequence (Q9BQA1 whole entry partner): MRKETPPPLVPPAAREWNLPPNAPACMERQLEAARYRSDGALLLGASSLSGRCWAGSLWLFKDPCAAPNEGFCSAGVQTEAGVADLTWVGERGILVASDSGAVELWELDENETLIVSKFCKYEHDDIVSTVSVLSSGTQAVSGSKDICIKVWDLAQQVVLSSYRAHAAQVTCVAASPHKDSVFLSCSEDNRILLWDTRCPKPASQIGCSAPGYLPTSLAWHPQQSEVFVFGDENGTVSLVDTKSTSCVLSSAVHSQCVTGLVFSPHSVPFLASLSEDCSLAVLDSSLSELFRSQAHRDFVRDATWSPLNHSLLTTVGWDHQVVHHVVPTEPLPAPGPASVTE

For the molecule `Cn1nccc1COc1ccc2c(c1)CCN(C[C@@H](O)CNC(=O)c1ccnc(NC3CCC3)c1)C2` [Compound 14, (S)-2-(cyclobutylamino)-N-(2-hydroxy-3-(6-((1-methyl-1H-pyrazol-5-yl)methoxy)-3,4-dihydroisoquinolin-2(1H)-yl)propyl)isonicotinamide], the IC50 is at least 10000 nM in the assay on HAP1 MTAP-deleted and 1000 to 10000 nM in the assay on HAP1 MTAP-intact.
Regarding `O=C(NC[C@H](O)CN1CCc2cc(OCc3cnco3)ccc2C1)c1ccnc(NC2CCC2)c1` [Compound 74, 2-(cyclobutylamino)-N-[(2S)-2-hydroxy-3-[6-(oxazol-5-ylmethoxy)-3,4-dihydro-1H-isoquinolin-2-yl]propyl]pyridine-4-carboxamide], the half-inhibitory concentration (IC50) with HAP1 MTAP-deleted and with HAP1 MTAP-intact was 1000 to 10000 nM each time.
Consider `Cc1ncoc1COc1ccc2c(c1)CCN(C[C@@H](O)CNC(=O)c1ccnc(NC3CCC3)c1)C2` [Compound 96, (S)-2-(cyclobutylamino)-N-(2-hydroxy-3-(6-((4-methyloxazol-5-yl)methoxy)-3,4-dihydroisoquinolin-2(1H)-yl)propyl)isonicotinamide], for which the IC50 with HAP1 MTAP-deleted and with HAP1 MTAP-intact was under 1000 nM in each case.
Turning to `O=C(NC[C@H](O)CN1CCc2cc(OCc3cn[nH]c3)ccc2C1)c1ccnc(NC2CCC2)c1` [Compound 163, 2-(cyclobutylamino)-N-[(2S)-2-hydroxy-3-[6-(1H-pyrazol-4-ylmethoxy)-3,4-dihydro-1H-isoquinolin-2-yl]propyl]pyridine-4-carboxamide], the IC50 with HAP1 MTAP-deleted and in the assay on HAP1 MTAP-intact was under 1000 nM throughout.
With `O=C(NC[C@H](O)CN1CCc2c(ccc(OCc3cnco3)c2Cl)C1)c1ccnc(NC2CCC2)c1F` [Compound 326, (S)—N-(3-(5-chloro-6-(oxazol-5-ylmethoxy)-3N-dihydroisoquinolin-2(1H)-yl)-2-hydroxypropyl)-2-(cyclobutylamino)-3-fluoroisonicotinamide], the IC50 with HAP1 MTAP-deleted and in the assay with HAP1 MTAP-intact was at least 10000 nM throughout.
`Cc1ncoc1COc1ccc2c(c1)CCN(C[C@@H](O)CNC(=O)c1ccnc(NC3CCN(C)C(=O)C3)c1)C2` (some centres unmarked) [Compound 627]: the results for the IC50 on PRMT5 [1], on PRMT5 [2] and at PRMT5 [3] were at least 5000 nM, 50 to 500 nM and 50 to 500 nM, respectively. Also, the “SAM/MTA Ratio” value on PRMT5 [2] is “A (a Ki ratio greater than or equal to 10 fold between the Ki in the presence of SAM and the Ki in the presence of MTA)”.
For the molecule `CC(=O)N1[C@@H]2CC[C@H]1C[C@@H](Nc1cc(C(=O)NC[C@H](O)CN3CCc4cc(OCc5ocnc5C)ccc4C3)ncn1)C2` [Compound 630, 6-{[(1R,3R,5S)-8-acetyl-8-azabicyclo[3.2.1]octan-3-yl]amino}-N-[(2S)-2-hydroxy-3-{6-[(4-methyl-1,3-oxazol-5-yl)methoxy]-1,2,3,4-tetrahydroisoquinolin-2-yl}propyl]pyrimidine-4-carboxamide], the half-inhibitory concentration (IC50) at PRMT5 [1] was at least 5000 nM; at PRMT5 [2], 50 to 500 nM; on PRMT5 [3] it was 500 to 5000 nM. For the same molecule, the “SAM/MTA Ratio” value on PRMT5 [2] is “A (a Ki ratio greater than or equal to 10 fold between the Ki in the presence of SAM and the Ki in the presence of MTA)”.
For `CC(=O)N1CC2CC1CC2Nc1cc(C(=O)NC[C@H](O)CN2CCc3cc(OCc4ocnc4C)ccc3C2)ncn1` (stereo partly drawn) [Compound 632, 6-({2-acetyl-2-azabicyclo[2.2.1]heptan-5-yl}amino)-N-[(2S)-2-hydroxy-3-{6-[(4-methyl-1,3-oxazol-5-yl)methoxy]-1,2,3,4-tetrahydroisoquinolin-2-yl}propyl]pyrimidine-4-carboxamide], the IC50 was at least 5000 nM at PRMT5 [1], 50 to 500 nM at PRMT5 [2] and 50 to 500 nM on PRMT5 [3]. Besides, the “SAM/MTA Ratio” value on PRMT5 [2] was “A (a Ki ratio greater than or equal to 10 fold between the Ki in the presence of SAM and the Ki in the presence of MTA)”.
`Cc1ncoc1COc1ccc2c(c1)CCN(C[C@@H](O)CNC(=O)c1cc(NC3CCC3)nc(N3CCCCC3)c1)C2` [Compound 633, 2-(cyclobutylamino)-N-[(2S)-2-hydroxy-3-{6-[(4-methyl-1,3-oxazol-5-yl)methoxy]-1,2,3,4-tetrahydroisoquinolin-2-yl}propyl]-6-(piperidin-1-yl)pyridine-4-carboxamide]: the IC50 at PRMT5 [1] was at least 5000 nM; on PRMT5 [2], 50 to 500 nM; at PRMT5 [3], 500 to 5000 nM. In addition, the “SAM/MTA Ratio” value at PRMT5 [2] was “A (a Ki ratio greater than or equal to 10 fold between the Ki in the presence of SAM and the Ki in the presence of MTA)”.
Take `CC(=O)N1CC(Nc2cc(C(=O)NC[C@H](O)CN3CCc4cc(OCc5ocnc5C)c(F)cc4C3)cc(N3CCCCC3)n2)C1` [Compound 638]: the IC50 on PRMT5 [1] was 50 to 500 nM; in the assay on HAP1 MTAP-intact, 1000 to 10000 nM; on PRMT5 [2] it was 50 to 500 nM; at PRMT5 [3], 50 to 500 nM. Moreover, the “SAM/MTA Ratio” value at PRMT5 [2] was “A (a Ki ratio greater than or equal to 10 fold between the Ki in the presence of SAM and the Ki in the presence of MTA)”.
For the molecule `Cc1ncoc1COc1ccc2c(c1)CCN(C[C@@H](O)CNC(=O)c1cc(NC3CCC3)nc(N3CCCCC3)n1)C2` [Compound 639, (S)-6-(cyclobutylamino)-N-(2-hydroxy-3-(6-((4-methyloxazol-5-yl)methoxy)-3,4-dihydroisoquinolin-2(1H)-yl)propyl)-2-(piperidin-1-yl)pyrimidine-4-carboxamide], the IC50 is 500 to 5000 nM on PRMT5 [1], under 1000 nM in the assay on HAP1 MTAP-intact, 50 to 500 nM at PRMT5 [2] and 50 to 500 nM on PRMT5 [3]. The “SAM/MTA Ratio” value at PRMT5 [2] is “A (a Ki ratio greater than or equal to 10 fold between the Ki in the presence of SAM and the Ki in the presence of MTA)”.
Regarding `Cc1ncoc1COc1ccc2c(c1)CCN(C[C@@H](O)CNC(=O)c1ccnc(NC3CCN(C(=O)C(C)(C)C)CC3)c1)C2` [Compound 640, (S)—N-(2-hydroxy-3-(6-((4-methyloxazol-5-yl)methoxy)-3,4-dihydroisoquinolin-2(1H)-yl)propyl)-2-((1-pivaloylpiperidin-4-yl)amino)isonicotinamide], the IC50 lay in the range of 500 to 5000 nM on PRMT5 [1], 1000 to 10000 nM in the assay with HAP1 MTAP-intact, 50 to 500 nM on PRMT5 [2] and 50 to 500 nM on PRMT5 [3]. The “SAM/MTA Ratio” value on PRMT5 [2] is “A (a Ki ratio greater than or equal to 10 fold between the Ki in the presence of SAM and the Ki in the presence of MTA)”.
Take `CCCC(=O)N1CC(Nc2cc(C(=O)NC[C@H](O)CN3CCc4cc(OCc5ocnc5C)c(F)cc4C3)ccn2)C1` [Compound 643, 2-[(1-butanoylazetidin-3-yl)amino]-N-[(2S)-3-[7-fluoro-6-[(4-methyloxazol-5-yl)methoxy]-3,4-dihydro-1H-isoquinolin-2-yl]-2-hydroxy-propyl]pyridine-4-carboxamide]: the IC50 at PRMT5 [1] was 500 to 5000 nM; on PRMT5 [2], 50 to 500 nM; on PRMT5 [3], 50 to 500 nM. Moreover, at PRMT5 [2], the “SAM/MTA Ratio” value is “A (a Ki ratio greater than or equal to 10 fold between the Ki in the presence of SAM and the Ki in the presence of MTA)”.
For the molecule `CC(=O)N1CCC(Nc2cc(C(=O)NC[C@H](O)CN3CCc4cc(OCc5ocnc5C)ccc4C3)cc(C(C)C)n2)CC1` [Compound 646, (S)-2-((1-acetylpiperidin-4-yl)amino)-N-(2-hydroxy-3-(6-((4-methyloxazol-5-yl)methoxy)-3,4-dihydroisoquinolin-2(1H)-yl)propyl)-6-isopropylisonicotinamide], the half-inhibitory concentration (IC50) was 500 to 5000 nM at PRMT5 [1], under 50 nM on PRMT5 [2] and 50 to 500 nM at PRMT5 [3]. Moreover, the “SAM/MTA Ratio” value on PRMT5 [2] is “A (a Ki ratio greater than or equal to 10 fold between the Ki in the presence of SAM and the Ki in the presence of MTA)”.
Consider `CC(=O)N1CC(Nc2cc(C(=O)NCC(O)CN3CCc4nc(OCc5ocnc5C)ccc4C3)nc(N3CCCCC3)n2)C1` (centres unmarked) [Compound 650], for which the concentration for half-maximal inhibition (IC50) on PRMT5 [1] was 500 to 5000 nM; at PRMT5 [2] it was 50 to 500 nM; on PRMT5 [3], 50 to 500 nM. On PRMT5 [2], the “SAM/MTA Ratio” value is “A (a Ki ratio greater than or equal to 10 fold between the Ki in the presence of SAM and the Ki in the presence of MTA)”.
Take `CC(=O)N1CC(Nc2cc(C(=O)NCC(O)CN3CCc4c(C)c(OCc5ocnc5C)cc(F)c4C3)nc(N3CCCCC3)n2)C1` (centres unmarked) [Compound 651]: the values for the IC50 at PRMT5 [1], at PRMT5 [2] and at PRMT5 [3] were 500 to 5000 nM, 50 to 500 nM and 50 to 500 nM, respectively. Also, on PRMT5 [2], the “SAM/MTA Ratio” value is “A (a Ki ratio greater than or equal to 10 fold between the Ki in the presence of SAM and the Ki in the presence of MTA)”.
In the case of `CC(=O)N1CCC(Nc2cc(C(=O)NC[C@@H](O)CN3CCc4c(C)c(OCc5ocnc5C)cc(F)c4C3)cc(N3CCCCC3)n2)CC1` [Compound 652], the results for the IC50 on PRMT5 [1], on PRMT5 [2] and on PRMT5 [3] were 500 to 5000 nM, 50 to 500 nM and 50 to 500 nM, respectively. In addition, the “SAM/MTA Ratio” value at PRMT5 [2] is “A (a Ki ratio greater than or equal to 10 fold between the Ki in the presence of SAM and the Ki in the presence of MTA)”.
On to `CC(=O)N1CCC(Nc2cc(C(=O)NC[C@H](O)CN3CCc4c(C)c(OCc5ocnc5C)cc(F)c4C3)cc(N3CCCCC3)n2)CC1` [Compound 653], for which the results for the 50% inhibitory concentration (IC50) at PRMT5 [1], at PRMT5 [2] and at PRMT5 [3] were at least 5000 nM, 500 to 5000 nM and 500 to 5000 nM, respectively. Besides, on PRMT5 [2], the “SAM/MTA Ratio” value was “A (a Ki ratio greater than or equal to 10 fold between the Ki in the presence of SAM and the Ki in the presence of MTA)”.
